Key:
Assay type in all cases: binding
[1] = target: T1, putative adenylate kinase (Leishmania major, UniProt Q4Q7A6); test: fragment cocktail soak, crystal electron density
T1 sequence (Q4Q7A6 1-180): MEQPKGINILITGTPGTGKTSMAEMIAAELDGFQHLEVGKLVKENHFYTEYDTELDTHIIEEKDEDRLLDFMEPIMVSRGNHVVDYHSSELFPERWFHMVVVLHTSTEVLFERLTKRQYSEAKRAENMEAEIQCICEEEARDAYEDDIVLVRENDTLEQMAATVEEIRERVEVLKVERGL

[2] = target: T2, uracil-DNA glycosylase (Leishmania naiffi, UniProt D0VWU0); test: fragment cocktail soak, crystal structure
T2 sequence (D0VWU0 1-260): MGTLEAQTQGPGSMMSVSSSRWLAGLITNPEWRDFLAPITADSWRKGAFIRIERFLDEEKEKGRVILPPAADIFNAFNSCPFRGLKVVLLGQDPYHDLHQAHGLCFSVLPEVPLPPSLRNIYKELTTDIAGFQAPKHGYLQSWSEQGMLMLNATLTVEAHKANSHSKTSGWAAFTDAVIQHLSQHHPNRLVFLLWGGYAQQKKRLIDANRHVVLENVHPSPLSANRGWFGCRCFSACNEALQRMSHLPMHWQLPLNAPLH

[3] = target: T2, uracil-DNA glycosylase; test: fragment cocktail soak, crystal structure; remark: listed apart in the source
[4] = target: coproporphyrinogen III oxidase (Leishmania major, UniProt P84155); test: fragment cocktail soak, crystal structure
[5] = target: T3, phosphoglycerate mutase (PGM) (Plasmodium falciparum, UniProt Q8IIG6); test: fragment cocktail soak, crystal electron density
T3 sequence (Q8IIG6 1-250): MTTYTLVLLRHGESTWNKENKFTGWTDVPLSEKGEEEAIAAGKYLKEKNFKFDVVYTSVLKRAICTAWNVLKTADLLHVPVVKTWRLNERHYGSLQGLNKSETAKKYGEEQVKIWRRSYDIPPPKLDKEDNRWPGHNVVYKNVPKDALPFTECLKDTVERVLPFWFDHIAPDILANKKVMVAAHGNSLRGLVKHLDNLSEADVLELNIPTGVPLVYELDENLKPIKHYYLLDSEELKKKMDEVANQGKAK

coproporphyrinogen III oxidase, sequence (P84155 whole entry, the tested form may be a part): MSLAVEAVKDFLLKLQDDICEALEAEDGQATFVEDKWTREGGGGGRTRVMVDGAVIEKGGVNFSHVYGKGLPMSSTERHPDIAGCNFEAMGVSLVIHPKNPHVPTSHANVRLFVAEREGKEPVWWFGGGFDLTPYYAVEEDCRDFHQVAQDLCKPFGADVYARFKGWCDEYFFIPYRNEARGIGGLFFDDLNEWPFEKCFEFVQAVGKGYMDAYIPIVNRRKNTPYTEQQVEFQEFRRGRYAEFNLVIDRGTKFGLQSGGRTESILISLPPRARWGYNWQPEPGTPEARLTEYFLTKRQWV

## Cc1cc(N)c2ccccc2n1 [4-amino-2-methylquinoline]
[1]
  fragment cocktail soak, crystal electron density: Electron density for 4-amino-2-methylquinoline when bound to L.major adenylate kinase (left)

## c1cc(N2CCOCC2)ccn1 [4-morpholinopyridine]
[2]
  fragment cocktail soak, crystal structure: Fragments bound to L.naiffi uracil-DNA glycosylase: 4-morpholinopyridine (left upper)

## COc1ccc(Cl)cc1C(=O)O [5-chloro-2-methoxybenzoic acid]
[3]
  IC50: ~15 mM

## O=C(O)c1cc2cc(F)ccc2[nH]1 [5-fluoroindole-2-carboxylic acid]
[4]
  fragment cocktail soak, crystal structure: Fragments from two different cocktails were found to bind: 5-fluoroindole-2-carboxylic acid (PDB: 3DWS)

## O=C(O)c1ccc(-c2ccccc2)o1 [5-phenyl-2-furoic acid]
[5]
  fragment cocktail soak, crystal electron density: Electron density for 5-Phenyl-2-furoic acid when bound to P.falciparum PGM (left)

## O=C(O)c1ccc2cccc(O)c2n1 [8-hydroxyquinoline-2-carboxylic acid]
[2]
  fragment cocktail soak, crystal structure: DMSO and 8-hydroxyquinoline-2-carboxylic acid (left lower)

— article PMC2897734 (Current topics in medicinal chemistry, 2009)
